What was measured:
proteases [1] = target: T1, proteases (Homo sapiens, UniProt P42574); assay type: biochemical; settings: Caspase-3; Reference at 100 nM
T1 construct: BPS Biosciences (ran the screen)

proteases [2] = target: T2, proteases (Homo sapiens, UniProt P55210); assay type: biochemical; settings: Caspase-7; Reference at 1 μM
T2 construct: BPS Biosciences (ran the screen)

NMDA = settings: read-out: Ki Ref; reference compound (positive control)
proteases [3] = target: T3, proteases (Homo sapiens, UniProt Q9UBX1); assay type: biochemical; settings: Cathepsin F; Reference at 1 μM
T3 construct: BPS Biosciences (ran the screen)
T3 sequence (Q9UBX1 271-484): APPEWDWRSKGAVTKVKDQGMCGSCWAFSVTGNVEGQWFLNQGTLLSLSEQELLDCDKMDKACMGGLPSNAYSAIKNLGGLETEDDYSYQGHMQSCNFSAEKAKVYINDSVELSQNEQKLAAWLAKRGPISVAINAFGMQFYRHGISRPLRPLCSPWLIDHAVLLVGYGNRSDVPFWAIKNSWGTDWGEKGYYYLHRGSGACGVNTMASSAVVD

proteases [4] = target: T4, proteases (Homo sapiens, UniProt P15374); assay type: biochemical; settings: Ubiquitin carboxy-terminal hydrolase L3; Reference at 10 nM
T4 construct: BPS Biosciences (ran the screen)
T4 sequence (P15374 whole entry): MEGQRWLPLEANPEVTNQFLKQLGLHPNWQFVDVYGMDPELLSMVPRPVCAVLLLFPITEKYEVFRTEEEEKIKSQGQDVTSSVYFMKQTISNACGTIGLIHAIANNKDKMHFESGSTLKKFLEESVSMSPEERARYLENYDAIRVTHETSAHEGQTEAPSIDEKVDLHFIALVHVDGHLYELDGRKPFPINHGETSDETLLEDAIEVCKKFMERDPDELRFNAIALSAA

proteases [5] = target: T5, proteases (Homo sapiens, UniProt P40818); assay type: biochemical; settings: Ubiquitin carboxyl-terminal hydrolase 8; Reference at 1 μM
T5 construct: BPS Biosciences (ran the screen)

proteases [6] = target: T6, proteases (Homo sapiens, UniProt O75604); assay type: biochemical; settings: Ubiquitin carboxyl-terminal hydrolase 2; Reference at 1 μM
T6 construct: BPS Biosciences (ran the screen)

proteases [7] = target: T7, proteases (Homo sapiens, UniProt P45974); assay type: biochemical; settings: Ubiquitin carboxyl-terminal hydrolase 5; Reference at 1 μM
T7 construct: BPS Biosciences (ran the screen)
T7 sequence (P45974 whole entry): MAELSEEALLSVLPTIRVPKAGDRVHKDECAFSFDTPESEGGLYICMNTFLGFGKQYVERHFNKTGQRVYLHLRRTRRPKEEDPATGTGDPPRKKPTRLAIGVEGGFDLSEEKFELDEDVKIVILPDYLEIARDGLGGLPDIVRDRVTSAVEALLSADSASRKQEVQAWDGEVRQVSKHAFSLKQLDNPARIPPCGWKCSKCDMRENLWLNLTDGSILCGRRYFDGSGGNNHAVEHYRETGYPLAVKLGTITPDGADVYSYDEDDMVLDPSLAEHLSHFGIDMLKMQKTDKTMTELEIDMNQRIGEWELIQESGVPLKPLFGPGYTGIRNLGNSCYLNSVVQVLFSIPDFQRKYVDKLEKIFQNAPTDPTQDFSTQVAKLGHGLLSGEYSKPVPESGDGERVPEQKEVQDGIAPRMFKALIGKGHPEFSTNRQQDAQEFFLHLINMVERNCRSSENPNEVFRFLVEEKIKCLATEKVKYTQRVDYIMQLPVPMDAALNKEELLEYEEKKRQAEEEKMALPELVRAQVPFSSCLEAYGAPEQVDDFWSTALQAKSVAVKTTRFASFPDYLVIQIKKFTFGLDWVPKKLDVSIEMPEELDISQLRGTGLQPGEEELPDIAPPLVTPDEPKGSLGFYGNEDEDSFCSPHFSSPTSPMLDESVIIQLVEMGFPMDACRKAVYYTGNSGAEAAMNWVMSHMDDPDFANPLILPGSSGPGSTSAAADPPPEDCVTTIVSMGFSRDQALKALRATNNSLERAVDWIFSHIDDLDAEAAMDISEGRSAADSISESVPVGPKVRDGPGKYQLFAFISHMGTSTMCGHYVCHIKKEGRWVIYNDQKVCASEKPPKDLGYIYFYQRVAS

proteases [8] = target: T8, proteases (Homo sapiens, UniProt Q93009); assay type: biochemical; settings: Ubiquitin carboxyl-terminal hydrolase 7; Reference at 1 μM
T8 construct: BPS Biosciences (ran the screen)

proteases [9] = target: T9, proteases (Homo sapiens, UniProt P54252); assay type: biochemical; settings: Ataxin3; Reference at 10 μM
T9 construct: BPS Biosciences (ran the screen)

proteases [10] = target: T10, proteases (Homo sapiens, UniProt P54578); assay type: biochemical; settings: Ubiquitin carboxyl-terminal hydrolase 14; Reference at 100 nM
T10 construct: BPS Biosciences (ran the screen)
T10 sequence (P54578 whole entry): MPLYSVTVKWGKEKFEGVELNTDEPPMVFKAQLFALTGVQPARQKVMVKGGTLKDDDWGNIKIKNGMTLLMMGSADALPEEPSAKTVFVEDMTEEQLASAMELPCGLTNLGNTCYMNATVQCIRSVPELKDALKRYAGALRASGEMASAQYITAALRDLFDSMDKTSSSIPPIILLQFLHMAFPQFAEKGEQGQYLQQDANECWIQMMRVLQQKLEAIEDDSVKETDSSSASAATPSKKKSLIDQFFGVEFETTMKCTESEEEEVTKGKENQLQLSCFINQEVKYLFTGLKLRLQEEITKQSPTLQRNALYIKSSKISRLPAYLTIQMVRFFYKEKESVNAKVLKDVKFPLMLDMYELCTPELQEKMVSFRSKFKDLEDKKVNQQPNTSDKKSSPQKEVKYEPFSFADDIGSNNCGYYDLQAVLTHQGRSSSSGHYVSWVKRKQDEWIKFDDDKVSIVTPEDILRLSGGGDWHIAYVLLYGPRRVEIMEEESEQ

proteases [11] = target: T11, proteases (Homo sapiens, UniProt P21580); assay type: biochemical; settings: A20; Reference at 1 μM
T11 construct: BPS Biosciences (ran the screen)

proteases [12] = target: T12, proteases (Homo sapiens, UniProt Q14694); assay type: biochemical; settings: Ubiquitin carboxyl-terminal hydrolase 10; Reference at 1 μM
T12 construct: BPS Biosciences (ran the screen)

proteases [13] = target: T13, proteases (Homo sapiens, UniProt Q8N6M0); assay type: biochemical; settings: Deubiquitinase OTUD6B; Reference at 1 μM
T13 construct: BPS Biosciences (ran the screen)

proteases [14] = target: T14, proteases (Homo sapiens, UniProt P09936); assay type: biochemical; settings: Ubiquitin carboxy-terminal hydrolase L1; Reference at 100 nM
T14 construct: BPS Biosciences (ran the screen)
T14 sequence (P09936 whole entry): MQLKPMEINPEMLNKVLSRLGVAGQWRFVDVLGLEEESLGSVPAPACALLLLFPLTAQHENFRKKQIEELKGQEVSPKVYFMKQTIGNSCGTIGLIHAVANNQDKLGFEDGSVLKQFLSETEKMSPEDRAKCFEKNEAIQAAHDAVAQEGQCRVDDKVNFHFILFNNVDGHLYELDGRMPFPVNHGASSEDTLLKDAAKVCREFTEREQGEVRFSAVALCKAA

Human recombinant FAP [15] = target: T15, Human recombinant FAP (Homo sapiens, UniProt Q12884); experiment: Surface plasmon resonance (Biacore) assay; assay type: binding
T15 sequence (Q12884 whole entry): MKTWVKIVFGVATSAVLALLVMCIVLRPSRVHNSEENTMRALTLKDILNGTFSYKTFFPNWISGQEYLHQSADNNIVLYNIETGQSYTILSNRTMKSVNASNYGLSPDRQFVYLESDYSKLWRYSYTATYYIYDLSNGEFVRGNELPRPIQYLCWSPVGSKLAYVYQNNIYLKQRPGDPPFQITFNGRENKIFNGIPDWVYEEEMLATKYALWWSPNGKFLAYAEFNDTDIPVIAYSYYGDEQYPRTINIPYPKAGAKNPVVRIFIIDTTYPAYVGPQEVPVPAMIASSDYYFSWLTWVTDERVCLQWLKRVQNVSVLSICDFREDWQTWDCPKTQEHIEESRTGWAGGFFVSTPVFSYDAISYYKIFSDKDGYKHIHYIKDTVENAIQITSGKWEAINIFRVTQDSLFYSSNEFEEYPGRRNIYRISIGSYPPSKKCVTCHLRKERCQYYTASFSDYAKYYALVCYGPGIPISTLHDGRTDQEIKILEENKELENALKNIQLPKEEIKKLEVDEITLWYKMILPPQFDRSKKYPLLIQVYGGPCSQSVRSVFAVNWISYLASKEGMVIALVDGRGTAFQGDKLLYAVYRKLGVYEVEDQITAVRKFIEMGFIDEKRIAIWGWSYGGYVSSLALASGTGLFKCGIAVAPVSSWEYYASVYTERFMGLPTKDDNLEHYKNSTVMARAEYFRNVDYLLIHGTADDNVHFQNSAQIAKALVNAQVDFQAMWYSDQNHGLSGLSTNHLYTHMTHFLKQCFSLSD

HEK-FAP tumor = experiment: SPECT imaging and biodistribution of ^111In-labelled compounds in mice with HEK-FAP tumors; assay type: in vivo; settings: FIG. 21
[16] = target: T16, FAP-expressing human WI-38 fibroblasts (Homo sapiens, UniProt Q12884); experiment: Competitive FACS binding assay
T16 construct: FAP-expressing human WI-38 fibroblasts (ECACC) were cultured in EMEM; host or cells: WI-38 human fibroblasts
T16 sequence (Q12884 whole entry): as above
Procedure: Cells were analyzed in an Attune NxT flow cytometer. […] […].
Cells were analyzed in an Attune NxT flow cytometer. […]

Human recombinant FAP [17] = target: T15, Human recombinant FAP; experiment: FRET-based FAP protease activity assay; assay type: biochemical; set-up: purchased R&D systems 3715-SE; settings: pIC50 Category (Activity), FRET-peptide substrate, 37° C.
alpha 1A (h) = alpha 1A (h) (Homo sapiens, UniProt P35348); settings: read-out: Ki Ref; reference compound (positive control)
Sequence of alpha 1A (h) (P35348 whole entry): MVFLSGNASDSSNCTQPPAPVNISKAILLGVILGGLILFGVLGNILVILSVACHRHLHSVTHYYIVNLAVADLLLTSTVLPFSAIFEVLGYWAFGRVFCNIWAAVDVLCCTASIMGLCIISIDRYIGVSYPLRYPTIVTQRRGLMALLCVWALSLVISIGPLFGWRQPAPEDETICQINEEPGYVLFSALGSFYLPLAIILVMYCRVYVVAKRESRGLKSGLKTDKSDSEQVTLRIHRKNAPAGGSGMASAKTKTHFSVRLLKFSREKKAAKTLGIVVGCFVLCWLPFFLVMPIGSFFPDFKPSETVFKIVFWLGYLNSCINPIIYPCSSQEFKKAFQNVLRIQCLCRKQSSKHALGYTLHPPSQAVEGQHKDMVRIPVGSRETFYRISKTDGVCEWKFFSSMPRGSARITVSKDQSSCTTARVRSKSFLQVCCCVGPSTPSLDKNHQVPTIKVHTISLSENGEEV

proteases [18] = target: proteases (Homo sapiens, UniProt Q9UHL4); assay type: biochemical; settings: DPP7; Reference at 200 μM
proteases [19] = target: T17, proteases (Homo sapiens, UniProt Q6V1X1); assay type: biochemical; settings: DPP8; Reference at 200 μM
T17 construct: BPS Biosciences (ran the screen)

KV channel = settings: read-out: Ki Ref; reference compound (positive control)
proteases [20] = target: T18, proteases (Homo sapiens, UniProt P03956); assay type: biochemical; settings: Matrix metalloproteasel; Reference at 1 μM
T18 construct: BPS Biosciences (ran the screen)

proteases [21] = target: T19, proteases (Homo sapiens, UniProt P08253); assay type: biochemical; settings: Matrix metalloprotease 2; Reference at 100 nM
T19 construct: BPS Biosciences (ran the screen)
T19 sequence (P08253 110-660): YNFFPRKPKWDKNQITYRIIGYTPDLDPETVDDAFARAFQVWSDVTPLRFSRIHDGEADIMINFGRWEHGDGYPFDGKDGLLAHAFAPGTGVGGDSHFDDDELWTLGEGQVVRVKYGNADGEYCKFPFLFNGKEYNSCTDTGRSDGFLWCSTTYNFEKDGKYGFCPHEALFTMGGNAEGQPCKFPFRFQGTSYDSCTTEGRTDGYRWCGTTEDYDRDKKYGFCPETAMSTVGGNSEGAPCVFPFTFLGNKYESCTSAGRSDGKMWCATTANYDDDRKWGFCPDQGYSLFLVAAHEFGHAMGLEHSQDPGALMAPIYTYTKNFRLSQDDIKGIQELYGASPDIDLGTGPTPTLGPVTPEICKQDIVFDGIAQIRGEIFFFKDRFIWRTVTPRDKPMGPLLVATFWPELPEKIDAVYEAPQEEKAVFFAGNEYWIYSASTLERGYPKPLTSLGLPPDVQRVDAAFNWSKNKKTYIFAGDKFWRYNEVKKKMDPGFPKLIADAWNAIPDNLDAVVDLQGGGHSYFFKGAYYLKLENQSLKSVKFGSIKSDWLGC

proteases [22] = target: T20, proteases (Homo sapiens, UniProt P14780, Q279R); assay type: biochemical; settings: 0.1 µM
T20 construct: BPS Biosciences (ran the screen)
T20 sequence (P14780 94-707 Q279R): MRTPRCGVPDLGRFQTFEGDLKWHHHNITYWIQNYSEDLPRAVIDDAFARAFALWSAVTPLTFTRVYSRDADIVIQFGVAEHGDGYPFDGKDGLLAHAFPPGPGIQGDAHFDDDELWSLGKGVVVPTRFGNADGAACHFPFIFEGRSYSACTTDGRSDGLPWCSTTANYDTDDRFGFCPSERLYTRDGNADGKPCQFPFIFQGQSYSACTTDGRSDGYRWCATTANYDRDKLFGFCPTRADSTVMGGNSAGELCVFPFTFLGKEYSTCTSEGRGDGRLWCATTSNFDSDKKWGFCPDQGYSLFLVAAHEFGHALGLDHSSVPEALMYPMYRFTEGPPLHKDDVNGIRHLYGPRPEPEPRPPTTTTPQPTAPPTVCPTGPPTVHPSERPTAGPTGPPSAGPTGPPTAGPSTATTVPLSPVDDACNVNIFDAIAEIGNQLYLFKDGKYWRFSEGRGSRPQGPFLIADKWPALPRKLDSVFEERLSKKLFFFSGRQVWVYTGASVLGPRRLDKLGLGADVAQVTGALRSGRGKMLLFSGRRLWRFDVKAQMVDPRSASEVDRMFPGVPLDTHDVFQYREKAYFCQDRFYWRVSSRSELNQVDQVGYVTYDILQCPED

proteases [23] = target: T21, proteases (Hepatitis C virus genotype 1b, UniProt P26663, R1181Q); assay type: biochemical; settings: serine protease NS3 (a.a. 3-181) from Hepatitis C virus genotype 1b (mutant R155Q); Reference at 1 μM
T21 construct: BPS Biosciences (ran the screen)

proteases [24] = target: T22, proteases (Hepatitis C virus genotype 1a, UniProt P27958, D1194V); assay type: biochemical; settings: serine protease NS3 (a.a. 3-181) from Hepatitis C virus genotype 1a (mutant D168V); Reference at 100 nM
T22 construct: BPS Biosciences (ran the screen)

proteases [25] = target: T23, proteases (Hepatitis C virus genotype 2a, UniProt Q99IB8); assay type: biochemical; settings: serine protease NS3 (a.a. 3-181) from Hepatitis C virus genotype 2a; Reference at 100 nM
T23 construct: BPS Biosciences (ran the screen)

proteases [26] = target: T24, proteases (Hepatitis C virus genotype 1b, UniProt P26663); assay type: biochemical; settings: serine protease NS3 (a.a. 3-181) from Hepatitis C virus genotype 1b; Reference at 100 nM
T24 construct: BPS Biosciences (ran the screen)

proteases [27] = target: T25, proteases (Hepatitis C virus genotype 1b, UniProt P26663, D1194V); assay type: biochemical; settings: serine protease NS3 (a.a. 3-181) from Hepatitis C virus genotype 1b (mutant D168V); Reference at 100 nM
T25 construct: BPS Biosciences (ran the screen)

[28] = tested on: metastatic colorectal cancer; settings: patients with metastatic colorectal cancer, Phase I and II clinical trials; cited from earlier work
[29] = In vivo SPECT/CT imaging of ^111In-3BP-4560 in mice; settings: ^111In-labelled, FIG. 28
proteases [30] = target: T26, proteases (Homo sapiens, UniProt Q12884); assay type: biochemical; settings: FAP; Reference at 100 nM
T26 construct: BPS Biosciences (ran the screen)
T26 sequence (Q12884 whole entry): as the sequence (Q12884 whole entry) above

5-HT2B (h) = 5-HT2B (h) (Homo sapiens, UniProt P41595); settings: read-out: Ki Ref; reference compound (positive control)

T1 sequence (P42574 29-277): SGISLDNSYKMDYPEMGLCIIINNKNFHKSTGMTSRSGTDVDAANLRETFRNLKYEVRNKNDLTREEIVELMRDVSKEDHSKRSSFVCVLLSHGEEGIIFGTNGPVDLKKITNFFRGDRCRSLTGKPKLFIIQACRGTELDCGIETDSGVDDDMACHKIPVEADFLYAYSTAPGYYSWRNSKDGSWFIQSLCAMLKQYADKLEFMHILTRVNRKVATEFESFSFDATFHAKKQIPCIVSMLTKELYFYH

Compound: COC[C@@H]1CCCN1S(=O)(=O)c1ccc2c(c1)C(=O)C(=O)N2 [Caspase 3/7 Inhibitor I]
- Percentage inhibition (%) (proteases [1]): 89%
- Percentage inhibition (%) (proteases [2]): 92%

Compound: O=C(O)[C@@H]1C[C@H](CP(=O)(O)O)CCN1 [CGS 19755]
- Ki (NMDA): 140 nM

Compound: Cystatin C
- Percentage inhibition (%) (proteases [3]): 74%

Compound: Ub-Aldehyde
- Percentage inhibition (%) (proteases [4]): 95%
- Percentage inhibition (%) (proteases [5]): 73%
- Percentage inhibition (%) (proteases [6]): 91%
- Percentage inhibition (%) (proteases [7]): 84%
- Percentage inhibition (%) (proteases [8]): 95%
- Percentage inhibition (%) (proteases [9]): 77%
- Percentage inhibition (%) (proteases [10]): 96%
- Percentage inhibition (%) (proteases [11]): 99%
- Percentage inhibition (%) (proteases [12]): 82%
- Percentage inhibition (%) (proteases [13]): 97%
- Percentage inhibition (%) (proteases [14]): 92%

Compound: CCCCNC(=O)N[C@H]1CSCc2cc(CSCCNC(=O)CN3CCN(CC(=O)O)CCN(CC(=O)O)CCN(CC(=O)O)CC3)cc(c2)CSC[C@@H](C(=O)O)NC(=O)[C@H](Cc2ccccc2)NC(=O)[C@H](CCC(N)=O)NC(=O)[C@H]([C@@H](C)O)NC(=O)[C@@H]2CCCN2C(=O)[C@@H]2CCCN2C1=O [3BP-3940, nBu-CAyl-[Cys(tMeBn(DOTA-AET))-Pro-Pro-Thr-Gln-Phe-Cys]-OH]
- Kd (Human recombinant FAP [15]): < 10 nM
- pKD Category (Human recombinant FAP [15]; Biacore assay): A (Category A stands for pKD values >8.0)
- uptake in healthy tissues (biodistribution) (HEK-FAP tumor): very low uptake in healthy tissues
- IC50 [16]: < 10 nM
- IC50 (Human recombinant FAP [17]): < 10 nM

Compound: COc1cccc(OC)c1OCCNCC1COc2ccccc2O1 (stereo not drawn) [WB 4101]
- Ki (alpha 1A (h)): 0.24 nM

Compound: N#Cc1ccc(NCCNCC(=O)N2N=CCC2C#N)nc1 (stereo not drawn) [KR62436]
- Percentage inhibition (%) (proteases [18]): 83%
- Percentage inhibition (%) (proteases [19]): 96%

Compound: alpha-dendrotoxin
- Ki (KV channel): 0.097 nM

Compound: COc1ccc(S(=O)(=O)N(CC(=O)NO)CC(C)C)cc1 [NNGH]
- Percentage inhibition (%) (proteases [20]): 87%
- Percentage inhibition (%) (proteases [21]): 95%
- Percentage inhibition (%) (proteases [22]): 92%

Compound: Denoprevir
- Percentage inhibition (%) (proteases [23]): 99%
- Percentage inhibition (%) (proteases [24]): 94%
- Percentage inhibition (%) (proteases [25]): 98%
- Percentage inhibition (%) (proteases [26]): 100%
- Percentage inhibition (%) (proteases [27]): 99%

Compound: Sibrotuzumab
- patients having stable disease [28]: 2 out of 17

Compound: CCCCNC(=O)N[C@H]1CSCc2cc(CSCCNC(=O)CN3CCN(CC(=O)O)CCN(CC(=O)O)CCN(CC(=O)O)CC3)cc(c2)CSC[C@@H](C(N)=O)NC(=O)[C@H](Cc2ccccc2)NC(=O)[C@H](CCC(N)=O)NC(=O)[C@H]([C@@H](C)O)NC(=O)[C@@H]2CCCN2C(=O)[C@@H]2CCCN2C1=O [3BP-4560, nBu-CAyl-[Cys(tMeBn(DOTA-AET))-Pro-Pro-Thr-Gln-Phe-Cys]-NH2]
- Kd (Human recombinant FAP [15]): < 10 nM
- uptake in healthy tissues (biodistribution) [29]: very low uptake in healthy tissues
- IC50 [16]: < 10 nM
- IC50 (Human recombinant FAP [17]): < 10 nM

Compound: N#C[C@@H]1CC(F)(F)CN1C(=O)CNC(=O)c1ccnc2ccccc12 [SP-13786]
- Percentage inhibition (%) (proteases [30]): 100%

Compound: COc1cc(CC(C)N)c(OC)cc1I (racemic) [(±)DOI]
- Ki (5-HT2B (h)): 4.2 nM

Source: patent US20230212549A1, “COMPOUNDS COMPRISING A […] LIGAND AND USE THEREOF” (priority 2021, published 2023)
